In publication PMC4257840 (Journal of Medicinal Chemistry, 2014) one finds inhibition and logD data, which are given here for one molecule.

For one data set, the target named is T1, Human cathepsin E (Homo sapiens, UniProt P14091).
T1 construct: host or cells: NS0 murine myeloma cell line
The experiment in a line: Protease counter-screening: Cathepsin E. Type of data set: biochemical. The procedure:
(§1) Appendix 7. Protease Counter -Screening
(§2) Protease counter-screeni ng was performed using the methods described below. Initial screening was conducted in duplicate using a single test substance concentration of 10 µ M .
(§3) Additional assays were conducted in replicate for selected pairin gs of test s ubstance and enz yme in order to enable the determination of IC50 values using conventional procedures.
(§4) Determination of K i was made using the Batch K i program (Biokin Ltd, Pullman, WA) to derive values from the Morrison equation: […]
(§5) Where [E ] is the active enz yme concentration, Kiapp is the apparent inhibition const ant, v 0 is the control velocit y in the absence of inhibitors, vb is the background velocity, v is the initial reaction velocit y in the presence of inhibitor, and I is the inhibitor concentration.Thence:
Where [S ] is the substrate concentration and KM is the Michealis constant.
Caspase 1: Activity against human recombinant caspase 1 expressed in E. coli was tested using Ac-YVAD- AMC as the substrate. Test compound or vehicle was pre- incubated with 600 […]
Cathep sin D: Tests were performed using enz ym e purified from human li ver. Test compound or vehicle was pre- incubated with 190 mU/mL enz yme in modified acetate buffer pH 4.0 for 15 min at 37 °C. […]
The amount of MCA-P LG formed was measured spectrofluorimetricall y at 340 nm/400 nm. […]
For orientation: The purpose of a counterscreen is to sort out artefacts and off-target activity.

The target in data set [1] is T2, cathepsin H purified from human liver (Homo sapiens, UniProt P09668).
T2 construct: Tests were performed using cathepsin H purified from human liver; from tissue; host or cells: human liver
T2 sequence (P09668 98-335): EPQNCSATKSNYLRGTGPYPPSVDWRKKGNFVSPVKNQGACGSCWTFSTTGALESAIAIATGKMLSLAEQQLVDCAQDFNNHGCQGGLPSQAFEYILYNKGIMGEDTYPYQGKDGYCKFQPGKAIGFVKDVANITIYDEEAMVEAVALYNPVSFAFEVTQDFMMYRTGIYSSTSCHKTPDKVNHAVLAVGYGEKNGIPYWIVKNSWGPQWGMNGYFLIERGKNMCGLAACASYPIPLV
The experiment in a line: Protease counter-screening: Cathepsin H. Type of data set: biochemical.
Method: Cathep sin H: Tests were performed using cathepsin H purified from human liver. Test compound or vehicle was pre -incubated with 3.3 mU/mL enz yme in sodium acetate buffer pH 5.5 for 15 min at 25 °C. The reaction was initiated by addition of 20 µM L-RR- AMC for another

Data set [2] concerns the target T3, Cathepsin C from bovine spleen (Bos taurus, UniProt Q3ZCJ8).
T3 construct: Cathepsin C from bovine spleen was used as the source of; from tissue; host or cells: bovine spleen
The experiment in a line: Protease counter-screening: Cathepsin C. Type of data set: biochemical. How it is done: as §1, §2, §3, §4, §5
Where [S ] is the substrate concentration and KM is the Michealis constant. […]
by addition of 50 µM Ac-DEVD-AMC for another 60 min incubation period. The amount of AMC formed was determined fluorimetricall y (excitation 360 nm/emission 465 nm). […]
by addition of 25 µM Ac-LEH D-A FC for another 60 min incubation period. The amount of amino-4- trifluorometh ylcoumarin (AFC) formed determined fluorimetrically (400nm/ 510nm).
Cathepsin C: Cathepsin C from bovine spleen was used as the source of enz yme. […] T he amount of AMC product formed was read spectrofluorimetrically

Data set [3] can be described thus: Measurement of LogD7.4 (n-octanol/PBS shake). Type of data set: physicochemical. The settings on record: single determination, n-octanol/PBS pH 7.4; read-out: Log D7.4.

T1 sequence (P14091 54-396): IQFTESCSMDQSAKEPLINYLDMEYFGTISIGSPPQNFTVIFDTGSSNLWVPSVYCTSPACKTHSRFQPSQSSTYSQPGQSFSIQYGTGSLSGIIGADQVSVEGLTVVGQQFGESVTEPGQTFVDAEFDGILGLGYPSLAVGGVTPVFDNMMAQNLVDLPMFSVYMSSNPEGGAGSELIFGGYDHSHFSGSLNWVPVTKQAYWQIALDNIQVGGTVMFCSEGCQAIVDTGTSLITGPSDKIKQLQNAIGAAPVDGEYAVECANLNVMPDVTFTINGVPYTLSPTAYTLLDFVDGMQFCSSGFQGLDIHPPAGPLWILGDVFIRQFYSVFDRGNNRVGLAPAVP
T3 sequence (Q3ZCJ8 25-463): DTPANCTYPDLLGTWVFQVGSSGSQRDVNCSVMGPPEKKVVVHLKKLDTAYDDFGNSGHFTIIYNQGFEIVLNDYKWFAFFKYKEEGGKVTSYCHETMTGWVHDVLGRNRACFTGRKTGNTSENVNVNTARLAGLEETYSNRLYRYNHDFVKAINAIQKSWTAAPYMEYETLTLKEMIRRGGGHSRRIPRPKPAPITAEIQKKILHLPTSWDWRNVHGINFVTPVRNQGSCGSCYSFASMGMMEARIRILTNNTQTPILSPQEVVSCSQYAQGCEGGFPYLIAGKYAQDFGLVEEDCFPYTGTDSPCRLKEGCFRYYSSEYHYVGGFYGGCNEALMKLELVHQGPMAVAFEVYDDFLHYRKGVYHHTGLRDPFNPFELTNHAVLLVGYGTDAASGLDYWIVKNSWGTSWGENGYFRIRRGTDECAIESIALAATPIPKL

Turning to `CC(C)[C@H](NC(=O)[C@H](C)NC(=O)[C@@H](NC(=O)c1ccccc1)C(C)(C)C)C(=O)C(=O)NCc1ccccc1` [Compound 38, N-{(S)-1-[(S)-1-((S)-1-Benzylaminooxalyl-2-methyl-propylcarbamoyl)-ethylcarbamoyl]-2,2-dimethyl-propyl}-benzamide], the inhibition – broadly, the change of the read-out against control, counted positive when it falls – at 10 µM was 23% on Human cathepsin E, 13% in data set [1] and 0% in data set [2]. Further, the logD at 1.5 h in data set [3] came out at 3.2.
